“Also recorded” adds a separate entry of the source.
Columns and labels:
[1] = test system: purified protein samples (mAbs 1-3); assay: Substrate specificity, purified protein samples; type: biochemical, CHO and E. coli; details: 0.5 mM substrate; mAbs 1-3 neat, 150-225 mg/ml
Procedure: (§1) The esterase activity assay monitors the conversion of the non-fluorescent substrates, 4-methylumbelliferyl fatty acid esters, to a fluorescent product, MU, through the cleavage of the ester bond. […] The concentration of each buffer component was selected based on in-house assay development studies (data not shown). A 50 mM tris chloride running buffer at pH 8.0 with 0.01% gum arabic was previously used to determine activity rates in a lipase and esterase activity assay (Nalder TD, et al., Biochimie. 2016;128-129:127-132).

[2] = test system: PCL, LPLA2, PLBL2; assay: Substrate specificity, model enzymes; type: biochemical; details: 0.5 mM substrate; PCL and LPLA2 20 ng/ml, PLBL2 400 µg/ml
Procedure: as §1

[3] = target: T1, carboxylesterase 2 (Homo sapiens, UniProt O00748); details: cited from earlier work
T1 sequence (O00748 27-559): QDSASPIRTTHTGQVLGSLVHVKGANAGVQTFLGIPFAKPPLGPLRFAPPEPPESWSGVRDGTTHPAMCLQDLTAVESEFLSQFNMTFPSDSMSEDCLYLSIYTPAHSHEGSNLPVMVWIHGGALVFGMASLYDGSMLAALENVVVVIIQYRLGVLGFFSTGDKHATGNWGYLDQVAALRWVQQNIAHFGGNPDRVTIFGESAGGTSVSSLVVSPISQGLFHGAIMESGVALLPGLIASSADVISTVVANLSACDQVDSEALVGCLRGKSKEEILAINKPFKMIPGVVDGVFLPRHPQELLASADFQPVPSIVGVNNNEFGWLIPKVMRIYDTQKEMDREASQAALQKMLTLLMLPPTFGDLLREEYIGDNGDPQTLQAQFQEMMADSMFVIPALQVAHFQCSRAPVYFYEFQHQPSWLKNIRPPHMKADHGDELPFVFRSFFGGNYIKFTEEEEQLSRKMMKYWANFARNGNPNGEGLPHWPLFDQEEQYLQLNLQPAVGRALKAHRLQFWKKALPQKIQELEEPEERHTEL

[4] = test system: residual hydrolytic HCPs in affinity chromatography purified mAb 2 sample (PS20 degradation); assay: Orlistat incubation, PS20 degradation by FFA (lauric acid) release in mAb 2 sample; type: biochemical, CHO (Chinese Hamster Ovary); details: mAb2 sample, PS20 0.04%, 25° C. 12 days, relative to samples without orlistat
Procedure: (§2) To investigate the effect of orlistat on PS20 degradation, affinity chromatography purified samples of mAb 2 (28 mg/mL), mAb 6 (22 mg/ml) and mAb 7 (22 mg/ml) were incubated for 5 hours at room temperature in the presence of DMSO (10% v/v) with orlistat (0.2 µM and 20 µM) or without orlistat. The samples were then spiked with PS20 (0.04% v/v) and methionine (20 mg/ml) and incubated at 25° C. for 12 days. After incubation, the samples were analyzed for PS20 hydrolytic degradation by quantifying the FFA degradant (lauric acid) as previously described in detail (Cheng Y, et al., J Pharm Sci. 2019;108(9):2880-2886).

[5] = target: T2, carboxylesterase 1 (CES1) (Homo sapiens, UniProt P23141); details: cited from earlier work
T2 sequence (P23141 18-567): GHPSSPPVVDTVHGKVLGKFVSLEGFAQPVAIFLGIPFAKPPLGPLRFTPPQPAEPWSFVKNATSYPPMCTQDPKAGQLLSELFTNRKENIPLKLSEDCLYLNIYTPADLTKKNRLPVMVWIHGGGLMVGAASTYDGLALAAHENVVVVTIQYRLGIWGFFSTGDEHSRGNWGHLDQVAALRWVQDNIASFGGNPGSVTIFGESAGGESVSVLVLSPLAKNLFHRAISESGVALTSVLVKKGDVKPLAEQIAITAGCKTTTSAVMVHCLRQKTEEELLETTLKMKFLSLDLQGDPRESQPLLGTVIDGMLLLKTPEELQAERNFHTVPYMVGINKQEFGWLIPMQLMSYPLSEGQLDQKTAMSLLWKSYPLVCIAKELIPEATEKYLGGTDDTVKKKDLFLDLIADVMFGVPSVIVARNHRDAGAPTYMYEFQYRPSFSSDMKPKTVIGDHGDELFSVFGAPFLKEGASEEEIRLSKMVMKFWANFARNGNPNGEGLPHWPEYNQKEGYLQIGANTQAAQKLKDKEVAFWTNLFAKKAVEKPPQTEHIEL

[6] = test system: residual HCPs in purified mAb 1 sample; assay: Orlistat inhibition, esterase activity assay with MU-C8; type: biochemical, CHO (Chinese Hamster Ovary); details: orlistat 0.5, 1 and 10 µM vs DMSO control; mAb 1 25 mg/ml during incubation; MU-C8 substrate
Procedure: (§3) The esterase activity assay monitors the conversion of the non-fluorescent substrates, 4-methylumbelliferyl fatty acid esters, to a fluorescent product, MU, through the cleavage of the ester bond. The reaction mixture contained 80 µl of reaction buffer (150 mM tris chloride pH 8.0, 0.25% (w/v) Triton X-100 and 0.125% (w/v) gum arabic), 10 µl substrate at 1 mM final concentration, and 10 µl model enzyme solution or protein samples. The concentration of each buffer component was selected based on in-house assay development studies (data not shown). […]
(§4) Model enzymes were diluted in water to the desired concentrations. […] The reaction was set up in 96-well plates and the increase of fluorescence signal (using excitation and emission wavelengths of 355 nm and 460 nm, respectively) was monitored every 10 minutes by incubating the reaction plates for two hours at 37° C. in a plate reader. Rate of production of MU, representing the total hydrolytic activity (from enzymatic and non-enzymatic hydrolysis), was derived from the slope of the fluorescence time course from 30 minutes to 120 minutes, and is denoted by the reaction raw rate (kraw). […]
(§5) Orlistat stock solution in DMSO was freshly prepared for each inhibition reaction. […] Rates were adjusted for background fluorescence as measured by the enzyme blank (negative control) wells. […]

[7] = target: T3, Pseudomonas cepacia lipase (PCL) (Burkholderia cepacia, UniProt P22088); assay: as above; type: biochemical; details: orlistat 0.5, 1 and 10 µM; PCL 50 ng/ml; MU-C8 substrate
T3 construct: purchased Sigma Aldrich
T3 sequence (P22088 45-364): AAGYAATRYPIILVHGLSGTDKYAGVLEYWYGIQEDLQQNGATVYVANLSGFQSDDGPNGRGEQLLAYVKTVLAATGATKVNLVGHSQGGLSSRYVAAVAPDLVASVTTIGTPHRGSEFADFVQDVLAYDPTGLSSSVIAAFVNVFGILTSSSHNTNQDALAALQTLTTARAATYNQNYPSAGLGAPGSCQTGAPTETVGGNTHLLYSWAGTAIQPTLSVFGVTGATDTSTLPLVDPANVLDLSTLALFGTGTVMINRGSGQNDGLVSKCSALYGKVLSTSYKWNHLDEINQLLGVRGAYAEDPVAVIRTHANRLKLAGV
Procedure: as §3, §4, §5

[8] = test system: lysosomal phospholipase A2 (LPLA2); assay: as above; type: biochemical; details: orlistat 0.5, 1 and 10 µM; LPLA2 50 ng/ml; MU-C8 substrate
Procedure: as §3, §4, §5

[9] = test system: residual hydrolytic HCPs in affinity chromatography purified mAb 7 sample (PS20 degradation); assay: Orlistat incubation, PS20 degradation by FFA (lauric acid) release in mAb 7 sample; type: biochemical, CHO (Chinese Hamster Ovary); details: mAb7 sample, PS20 0.04%, 25° C. 12 days, relative to samples without orlistat
Procedure: as §2

[10] = test system: residual hydrolytic HCPs in affinity chromatography purified mAb 6 sample (PS20 degradation); assay: Orlistat incubation, PS20 degradation by FFA (lauric acid) release in mAb 6 sample; type: biochemical, CHO (Chinese Hamster Ovary); details: mAb6 sample, PS20 0.04%, 25° C. 12 days, relative to samples without orlistat
Procedure: as §2

Compound: CCCCCCCC(=O)Oc1ccc2c(C)cc(=O)oc2c1 [MU-C8, 4-methylumbelliferyl caprylate]
- activity of purified protein samples towards MU ester substrate [1]: most sensitivity
- hydrolysis of MU ester by model enzymes [2]: hydrolyzed

Compound: CCCCCCCCCC(=O)Oc1ccc2c(C)cc(=O)oc2c1 [MU-C10, 4-methylumbelliferyl decanoate]
- hydrolysis of MU ester by model enzymes [2]: hydrolyzed

Compound: CCCCCCCC/C=C\CCCCCCCC(=O)Oc1ccc2c(C)cc(=O)oc2c1 [MU-C18:1, 4-methylumbelliferyl oleate]
- activity of purified protein samples towards MU ester substrate [1]: did not show activity

Compound: CCCCCCCCCCC[C@@H](C[C@@H]1OC(=O)[C@H]1CCCCCC)OC(=O)[C@H](CC(C)C)NC=O [orlistat, (S)-2-formylamino-4-methyl-pentanoic acid (S)-1-[[(2S,3S)-3-hexyl-4-oxo-2-oxetanyl]methyl]-dodecyl ester]
- inhibition of carboxylesterase 2 [3]: significantly inhibited
- Decrease in FFA Release Rate (%) ([4]; orlistat 0.2 µM): 31%
- Decrease in FFA Release Rate (%) ([4]; orlistat 20 µM): 63%
- inhibition of carboxylesterase 1 [5]: lack of orlistat potency
- reduction in esterase activity rate [6]: dose-dependent reduction; also recorded: did not completely inhibit
- inhibition of esterase activity [7]: complete inhibition
- inhibition of esterase activity [8]: complete inhibition
- Decrease in FFA Release Rate (%) ([9]; orlistat 0.2 µM): 39%
- Decrease in FFA Release Rate (%) ([9]; orlistat 20 µM): 74%
- Decrease in FFA Release Rate (%) ([10]; orlistat 0.2 µM): 67%
- Decrease in FFA Release Rate (%) ([10]; orlistat 20 µM): 91%

— patent US20230348953A1, “HIGH THROUGHPUT, FLUORESCENCE-BASED ESTERASE ACTIVITY ASSAY FOR ASSESSING POLYSORBATE DEGRADATION RISK DURING BIOPHARMACEUTICAL DEVELOPMENT” (GENENTECH, INC., priority 2020, published 2023)
